The results in this text go back to patent US8546338B2, “Self-assembling hydrogels based on dicephalic peptide amphiphiles” (Johnson & Johnson Consumer Companies, Inc., priority 2010, dated 2013).

This series can be described thus: Gelation experiments: inversion test for self-supporting hydrogels. The format is physicochemical. Particulars: for Gelation (self-supporting gel on inversion), Calcium added: DMEM plus 10 μl of 100 mg/cc calcium chloride solution; for Concentration at which gel forms, Calcium added: DMEM with calcium chloride added; for Gelation (self-supporting gel on inversion), DMEM: DPA solution in water mixed 1:1 with DMEM; for Gelation (self-supporting gel on inversion), DMEM / Concentration at which gel forms, DMEM: no calcium added; for Gelation (self-supporting gel on inversion), PBS / Gelation (self-supporting gel on inversion), Water: final concentrations 1, 2 and 4 weight percent tested; for Gelation (self-supporting gel on inversion), Water: in water; for Concentration at which gel forms, DMEM: mixed with DMEM; for Gelation under all conditions tested: 2-4 wt %, water, DMEM and DMEM plus calcium; for Gelation (self-supporting gel on inversion), PBS / Gelation under all conditions tested: PBS. The procedure: Inversion tests were performed to determine qualitatively under which conditions the various DPAs formed self-supporting hydrogels. The various types of DPAs were tested by dissolving them in ultrapure water (>18 MΩ resistivity) at double the desired final concentration followed by mixing in a 1:1 ratio with different liquid mediums. Gelation was deemed to have occurred if the gel supported its own weight upon inverting the vial (FIG. 3A and FIG. 3B). Gelation was tested at final concentrations of 1, 2 and 4 weight percent. We tested phosphate buffered saline (PBS), and Dulbecco's modified eagle media (DMEM) as liquid medium. Typical scale is 100 μl each of DPA solution in water and mixing medium but other scales have been tested. Finally, if no spontaneous gelation occurs, 10 μl of 100 mg/cc calcium chloride solution was added to induce gelation.

Where [1] appears, read: listed as linear peptide amphiphile analogue.

Where a SMILES comes first, the peptide text is derived from it. Where no end group is shown, it is not given here. The star is where a group is joined. Palmitoyl = CCCCCCCCCCCCCCCC(=O)*

In the case of `CCCCCCCCCCCCCCCC(=O)NCC(=O)N[C@@H](Cc1ccccc1)C(=O)NCC(=O)N[C@@H](Cc1ccccc1)C(=O)NCC(=O)N[C@@H](Cc1ccccc1)C(=O)NCC(=O)N[C@@H](CCC(N)=O)C(=O)N[C@@H](CCC(N)=O)C(=O)N[C@@H](CO)C(=O)O` [reference compound] (Palmitoyl-GFGFGFGQQS-OH), the “Gelation (self-supporting gel on inversion), Calcium added” value (from here on “Gelation … Calcium added”) is “Yes,”; the “Concentration at which gel forms, Calcium added” value is 2%; the “Gelation (self-supporting gel on inversion), DMEM” value (shortened to “Gelation … DMEM”) is “No”; the “Gelation (self-supporting gel on inversion), PBS” value (from here on “Gelation … PBS”) was “No”. Besides, the “Gelation (self-supporting gel on inversion), Water” value (“Gelation … Water” below) is “No”. Under setting [1], the “Gelation … Calcium added” value was “could be gelled”; the “Gelation … DMEM” value is “did not form gels”; the “Gelation … PBS” value was “did not form gels”; the “Gelation … Water” value was “did not form gels”.
Turning to `CCCCCCCCCCCCCCCC(=O)NC(C(=O)NCC(=O)N[C@@H](Cc1ccccc1)C(=O)NCC(=O)N[C@@H](Cc1ccccc1)C(=O)NCC(=O)N[C@@H](Cc1ccccc1)C(=O)NCC(=O)NCC(=O)N[C@@H](CC(N)=O)C(=O)N[C@@H](CO)C(=O)O)C(=O)NCC(=O)N[C@@H](Cc1ccccc1)C(=O)NCC(=O)N[C@@H](Cc1ccccc1)C(=O)NCC(=O)N[C@@H](Cc1ccccc1)C(=O)NCC(=O)NCC(=O)N[C@@H](CC(N)=O)C(=O)N[C@@H](CO)C(=O)O` [Gly-Phe-Gly-Phe-Gly-Phe-Gly-Gly-Asn-Ser], the “Gelation … DMEM” value is “Yes,”; the “Gelation … PBS” value is listed as “No”; the “Gelation … Water” value is reported as “No”; the “Concentration at which gel forms, DMEM” value is given as 2%.
Turning to `CCCCCCCCCCCCCCCC(=O)NC(C(=O)NCC(=O)N[C@@H](Cc1ccccc1)C(=O)NCC(=O)N[C@@H](Cc1ccccc1)C(=O)NCC(=O)N[C@@H](Cc1ccccc1)C(=O)NCC(=O)NCC(=O)N[C@@H](CCC(N)=O)C(=O)N[C@@H](CO)C(=O)O)C(=O)NCC(=O)N[C@@H](Cc1ccccc1)C(=O)NCC(=O)N[C@@H](Cc1ccccc1)C(=O)NCC(=O)N[C@@H](Cc1ccccc1)C(=O)NCC(=O)NCC(=O)N[C@@H](CCC(N)=O)C(=O)N[C@@H](CO)C(=O)O` [Gly-Phe-Gly-Phe-Gly-Phe-Gly-Gly-Gln-Ser], the “Gelation … DMEM” value was “Yes,”; the “Gelation … PBS” value is reported as “No”; the “Gelation … Water” value is “No”; the “Concentration at which gel forms, DMEM” value stood at 2%.
As to “GFGFGFGQQS-OH [Gly-Phe-Gly-Phe-Gly-Phe-Gly-Gln-Gln-Ser, reference compound]”, the “Gelation under all conditions tested” value is on record as “did not form any gels”; the “Gelation … Calcium added” value is listed as “No”; the “Gelation … DMEM” value is listed as “No”; the “Gelation … PBS” value is “No”. In addition, the “Gelation … Water” value is given as “No”.
As for `CCCCCCCCCCCCCCCC(=O)NC(C(=O)NCC(=O)N[C@@H](Cc1c[nH]c2ccccc12)C(=O)NCC(=O)N[C@@H](Cc1c[nH]c2ccccc12)C(=O)NCC(=O)N[C@@H](Cc1c[nH]c2ccccc12)C(=O)NCC(=O)N[C@@H](CCC(N)=O)C(=O)N[C@@H](CCC(N)=O)C(=O)N[C@@H](CO)C(=O)O)C(=O)NCC(=O)N[C@@H](Cc1c[nH]c2ccccc12)C(=O)NCC(=O)N[C@@H](Cc1c[nH]c2ccccc12)C(=O)NCC(=O)N[C@@H](Cc1c[nH]c2ccccc12)C(=O)NCC(=O)N[C@@H](CCC(N)=O)C(=O)N[C@@H](CCC(N)=O)C(=O)N[C@@H](CO)C(=O)O` [Gly-Trp-Gly-Trp-Gly-Trp-Gly-Gln-Gln-Ser], the “Gelation under all conditions tested” value was “no gelation was observed”; the “Gelation … Calcium added” value is on record as “No”; the “Gelation … DMEM” value was “No”; the “Gelation … PBS” value was “No”. The “Gelation … Water” value was “No”.
As to `CCCCCCCCCCCCCCCC(=O)NC(C(=O)NCC(=O)N[C@@H](Cc1ccccc1)C(=O)NCC(=O)N[C@@H](Cc1ccccc1)C(=O)NCC(=O)N[C@@H](Cc1ccccc1)C(=O)NCC(=O)N[C@@H](CC(N)=O)C(=O)NCC(=O)N[C@@H](CO)C(=O)O)C(=O)NCC(=O)N[C@@H](Cc1ccccc1)C(=O)NCC(=O)N[C@@H](Cc1ccccc1)C(=O)NCC(=O)N[C@@H](Cc1ccccc1)C(=O)NCC(=O)N[C@@H](CC(N)=O)C(=O)NCC(=O)N[C@@H](CO)C(=O)O` [Gly-Phe-Gly-Phe-Gly-Phe-Gly-Asn-Gly-Ser], the “Gelation … DMEM” value is listed as “Yes,”; the “Gelation … PBS” value is “No”; the “Gelation … Water” value is “No”; the “Concentration at which gel forms, DMEM” value stood at 2%.
For the compound `CCCCCCCCCCCCCCCC(=O)NC(C(=O)NCC(=O)N[C@@H](Cc1ccc(O)cc1)C(=O)NCC(=O)N[C@@H](Cc1ccc(O)cc1)C(=O)NCC(=O)N[C@@H](Cc1ccc(O)cc1)C(=O)NCC(=O)N[C@@H](CCC(N)=O)C(=O)N[C@@H](CCC(N)=O)C(=O)N[C@@H](CO)C(=O)O)C(=O)NCC(=O)N[C@@H](Cc1ccc(O)cc1)C(=O)NCC(=O)N[C@@H](Cc1ccc(O)cc1)C(=O)NCC(=O)N[C@@H](Cc1ccc(O)cc1)C(=O)NCC(=O)N[C@@H](CCC(N)=O)C(=O)N[C@@H](CCC(N)=O)C(=O)N[C@@H](CO)C(=O)O` [Gly-Tyr-Gly-Tyr-Gly-Tyr-Gly-Gln-Gln-Ser], the “Gelation … Calcium added” value is “does form gels and Yes”; the “Concentration at which gel forms, Calcium added” value is reported as 2%; the “Gelation … DMEM” value is “does not gel and No”; the “Gelation … PBS” value was “does not gel and No”. Further, the “Gelation … Water” value was “does not gel and No”.
